# Results: patent publication US20240308996A1, “PYRIDOPYRIDINES AND DERIVATIVES THEREOF AS SELECTIVE KINASE INHIBITORS” (University of Sharjah, priority 2023, published 2024)
# How the values were obtained:
# Type in all cases: cell-based
# [1] = tested on: RPMI-8226; test: NCI-60 cell line panel: RPMI-8226; conditions: Leukemia; for IC50: Homo sapiens; for TGI: total growth inhibition
# Protocol: (§1) It was carried out at the NCI, Bethesda, MD, USA, utilizing their standard protocol.
# [2] = tested on: NCI-H226; test: NCI-60 cell line panel: NCI-H226; conditions: Non-Small Cell Lung Cancer; for IC50: Homo sapiens; for TGI: total growth inhibition
# Protocol: as §1
# [3] = tested on: TK-10; test: NCI-60 cell line panel: TK-10; conditions: Renal Cancer; for IC50: Homo sapiens; for TGI: total growth inhibition
# Protocol: as §1
# [4] = tested on: CCRF-CEM; test: NCI-60 cell line panel: CCRF-CEM; conditions: Leukemia; for IC50: Homo sapiens; for TGI: total growth inhibition
# Protocol: as §1
# [5] = tested on: HS 578T; test: NCI-60 cell line panel: HS 578T; conditions: for TGI: Breast Cancer, HS 578T, total growth inhibition; for IC50: Homo sapiens, Hs-578T
# Protocol: as §1
# [6] = tested on: HT29; test: NCI-60 cell line panel: HT29; conditions: for TGI: Colon Cancer, total growth inhibition; for IC50: Homo sapiens, HT-29, Colon Cancer
# Protocol: as §1
# [7] = tested on: PC-3; test: NCI-60 cell line panel: PC-3; conditions: Prostate Cancer; for IC50: Homo sapiens; for TGI: total growth inhibition
# Protocol: as §1
# [8] = tested on: CAKI-1; test: NCI-60 cell line panel: CAKI-1; set-up: TGI: unit not given here; conditions: Renal Cancer; for IC50: Homo sapiens; for TGI: total growth inhibition
# Protocol: as §1
# [9] = tested on: MCF7; test: NCI-60 cell line panel: MCF7; conditions: Breast Cancer; for TGI: total growth inhibition; for IC50: Homo sapiens
# Protocol: as §1
# [10] = tested on: OVCAR-5; test: NCI-60 cell line panel: OVCAR-5; conditions: Ovarian Cancer; for IC50: Homo sapiens; for TGI: total growth inhibition
# Protocol: as §1
# [11] = tested on: EKVX; test: NCI-60 cell line panel: EKVX; conditions: Non-Small Cell Lung Cancer; for IC50: Homo sapiens; for TGI: total growth inhibition, in µM (unit assumed)
# Protocol: as §1
# [12] = tested on: U251; test: NCI-60 cell line panel: U251; set-up: TGI: unit not given here; conditions: for TGI: CNS Cancer, total growth inhibition; for IC50: Homo sapiens, U-251, CNS Cancer
# Protocol: as §1
# [13] = tested on: SK-MEL-2; test: NCI-60 cell line panel: SK-MEL-2; set-up: TGI: unit not given here; conditions: Melanoma; for IC50: Homo sapiens; for TGI: total growth inhibition
# Protocol: as §1
# [14] = tested on: BT-549; test: NCI-60 cell line panel: BT-549; conditions: Breast Cancer; for TGI: total growth inhibition; for IC50: Homo sapiens
# Protocol: as §1
# [15] = tested on: ACHN; test: NCI-60 cell line panel: ACHN; conditions: Renal Cancer; for IC50: Homo sapiens; for TGI: total growth inhibition
# Protocol: as §1
# [16] = tested on: HCC-2998; test: NCI-60 cell line panel: HCC-2998; conditions: Colon Cancer; for TGI: total growth inhibition; for IC50: Homo sapiens
# Protocol: as §1
# [17] = tested on: SK-MEL-5; test: NCI-60 cell line panel: SK-MEL-5; conditions: Melanoma; for IC50: Homo sapiens; for TGI: total growth inhibition
# Protocol: as §1
# [18] = tested on: SF-295; test: NCI-60 cell line panel: SF-295; conditions: CNS Cancer; for TGI: total growth inhibition, unit assumed; for IC50: Homo sapiens
# Protocol: as §1
# [19] = tested on: NCI-H460; test: NCI-60 cell line panel: NCI-H460; conditions: Non-Small Cell Lung Cancer; for IC50: Homo sapiens; for TGI: total growth inhibition
# Protocol: as §1
# [20] = tested on: OVCAR-8; test: NCI-60 cell line panel: OVCAR-8; conditions: Ovarian Cancer; for IC50: Homo sapiens; for TGI: total growth inhibition, in µM (unit assumed)
# Protocol: as §1
# [21] = tested on: OVCAR-3; test: NCI-60 cell line panel: OVCAR-3; conditions: Ovarian Cancer; for IC50: Homo sapiens; for TGI: total growth inhibition
# Protocol: as §1
# [22] = tested on: M14; test: NCI-60 cell line panel: M14; conditions: Melanoma; for IC50: Homo sapiens; for TGI: total growth inhibition
# Protocol: as §1
# [23] = tested on: SF-539; test: NCI-60 cell line panel: SF-539; conditions: CNS Cancer; for TGI: total growth inhibition; for IC50: Homo sapiens
# Protocol: as §1
# [24] = tested on: HCT-15; test: NCI-60 cell line panel: HCT-15; conditions: Colon Cancer; for TGI: total growth inhibition; for IC50: Homo sapiens
# Protocol: as §1
# [25] = tested on: UO-31; test: NCI-60 cell line panel: UO-31; set-up: TGI: unit not given here; conditions: Renal Cancer; for IC50: Homo sapiens; for TGI: total growth inhibition
# Protocol: as §1
# [26] = tested on: hepatocellular carcinoma cell lines; test: Screening against HCC cell lines
# Protocol: The target compounds were tested against hepatocellular carcinoma cell lines. Compounds 1j. 13a. 13b. 13c. […] The mean inhibition percentage values are illustrated in Table 9.
# Two HCC cell lines (Hep3B and HepG2) were used for screening the antiproliferative activity of the synthesized compounds. The cell lines were obtained from the European Collection of Cell Cultures (ECACC, UK) and maintained in Dulbecco's Modified Eagle Medium (DMEM: Sigma-Aldrich) supplemented with 10% fetal bovine serum (FBS) and 1% penicillin/streptomycin and incubated at 37° C. in a 5% CO2 air atmosphere. In addition, WI-38 normal cell line was used to investigate the safety of these compounds.
# MTT assay was conducted to calculate the IC50 of the compounds following the reported procedure . Briefly, the cells were seeded in 96-well tissue culture plates with a density of 5×10^4 cells/well and incubated overnight at 37° C. in a 5% CO2 air atmosphere. After that, cells were treated with the newly synthesized compounds or sorafenib as a positive control. DMSO was used as a negative control. After 48 h, the media were aspirated, and replaced with media containing 0.5 mg/mL of MTT tetrazolium dye (Sigma-Aldrich) for 2 h at 37° C. Finally, the media were removed and 200 μL of DMSO was added to solubilize the formazan crystals. Absorbance was then measured at 570 nm using Varioskan Flash multimode plate reader (Thermo Scientific, Massachusetts, USA).
# [27] = tested on: SF-268; test: NCI-60 cell line panel: SF-268; conditions: CNS Cancer; for TGI: total growth inhibition; for IC50: Homo sapiens
# Protocol: as §1
# [28] = tested on: UACC-62; test: NCI-60 cell line panel: UACC-62; conditions: Melanoma; for IC50: Homo sapiens; for TGI: total growth inhibition
# Protocol: as §1
# [29] = tested on: HOP-62; test: NCI-60 cell line panel: HOP-62; conditions: Non-Small Cell Lung Cancer; for IC50: Homo sapiens; for TGI: total growth inhibition
# Protocol: as §1
# [30] = tested on: MDA-MB-231/ATCC; test: NCI-60 cell line panel: MDA-MB-231/ATCC; conditions: Breast Cancer; for TGI: total growth inhibition; for IC50: Homo sapiens
# Protocol: as §1
# [31] = tested on: SK-OV-3; test: NCI-60 cell line panel: SK-OV-3; conditions: Ovarian Cancer; for IC50: Homo sapiens; for TGI: total growth inhibition
# Protocol: as §1
# [32] = tested on: DU-145; test: NCI-60 cell line panel: DU-145; conditions: Prostate Cancer; for IC50: Homo sapiens; for TGI: total growth inhibition
# Protocol: as §1
structure (smiles),measurement,setting,value
"CNC(=O)c1cc(-c2ccc(NC(=O)Nc3ccc(N4CCN(C)CC4)c(C(F)(F)F)c3)cc2)nc2cccnc12 [Compound 13b, N-Methyl-2-(4-(3-(4-(4-methylpiperazin-1-yl)-3-(trifluoromethyl)phenyl)ureido)phenyl)-1,5-naphthyridine-4-carboxamide]",IC50,[1],3.85 µM
same,TGI,[1],25 µM
same,IC50,[2],18 µM
same,TGI,[2],39.7 µM
same,IC50,[3],18.5 µM
same,TGI,[3],33.2 µM
same,IC50,[4],3.16 µM
same,TGI,[4],74.1 µM
same,TGI,[5],38.9 µM
same,IC50,[5],15 µM
same,TGI,[6],4.19 µM
same,IC50,[6],1.92 µM
same,IC50,[7],15.1 µM
same,TGI,[7],30.1 µM
same,IC50,[8],16.1 µM
same,TGI,[8],29.6
same,TGI,[9],3.45 µM
same,IC50,[9],1.67 µM
same,IC50,[10],15.6 µM
same,TGI,[10],29 µM
same,IC50,[11],17.9 µM
same,TGI,[11],33.9
same,TGI,[12],14.7
same,IC50,[12],3.43 µM
same,IC50,[13],≥ 100 µM
same,TGI,[13],100
same,TGI,[14],35.3 µM
same,IC50,[14],16.5 µM
same,IC50,[15],15.5 µM
same,TGI,[15],28.9 µM
same,TGI,[16],34.6 µM
same,IC50,[16],18 µM
same,IC50,[17],17.5 µM
same,TGI,[17],31.7 µM
same,TGI,[18],36.9 µM
same,IC50,[18],18 µM
same,IC50,[19],3.19 µM
same,TGI,[19],10.2 µM
same,IC50,[20],17.4 µM
same,TGI,[20],35.4
same,IC50,[21],9.59 µM
same,TGI,[21],25.8 µM
same,IC50,[22],1.79 µM
same,TGI,[22],3.71 µM
same,TGI,[23],26.5 µM
same,IC50,[23],13.6 µM
same,TGI,[24],4.33 µM
same,IC50,[24],2.07 µM
same,IC50,[25],15.3 µM
same,TGI,[25],29.2
same,inhibition activity against hepatocellular carcinoma cell lines compared with sorafenib,[26],higher inhibition activity than sorafenib
same,TGI,[27],39.2 µM
same,IC50,[27],17.5 µM
same,IC50,[28],18.4 µM
same,TGI,[28],33.9 µM
same,IC50,[29],16.4 µM
same,TGI,[29],32.2 µM
same,TGI,[30],38.1 µM
same,IC50,[30],17.5 µM
same,IC50,[31],18.5 µM
same,TGI,[31],34.7 µM
same,IC50,[32],17.6 µM
same,TGI,[32],35.6 µM
"CC(C)NC(=O)c1cc(-c2ccc(NC(=O)Nc3ccc(N4CCN(C)CC4)c(C(F)(F)F)c3)cc2)nc2cccnc12 [Compound 13e, N-Isopropyl-2-(4-(3-(4-(4-methylpiperazin-1-yl)-3-(trifluoromethyl)phenyl)ureido)phenyl)-1,5-naphthyridine-4-carboxamide]",IC50,[1],0.98 µM
same,TGI,[1],3.48 µM
same,IC50,[2],5.6 µM
same,TGI,[2],14.7 µM
same,IC50,[3],0.71 µM
same,TGI,[3],1.31 µM
same,IC50,[4],0.74 µM
same,TGI,[4],1.98 µM
same,TGI,[5],2.19 µM
same,IC50,[5],0.71 µM
same,TGI,[6],1.37 µM
same,IC50,[6],0.67 µM
same,IC50,[7],0.72 µM
same,TGI,[7],1.52 µM
same,IC50,[8],0.65 µM
same,TGI,[8],1.22
same,TGI,[9],1.3 µM
same,IC50,[9],0.65 µM
same,IC50,[10],0.65 µM
same,TGI,[10],1.23 µM
same,IC50,[11],0.77 µM
same,TGI,[11],1.49
same,TGI,[12],1.34
same,IC50,[12],0.67 µM
same,IC50,[13],1 µM
same,TGI,[13],2.60
same,TGI,[14],7.41 µM
same,IC50,[14],2.1 µM
same,IC50,[15],0.64 µM
same,TGI,[15],1.18 µM
same,TGI,[16],1.36 µM
same,IC50,[16],0.7 µM
same,IC50,[17],0.67 µM
same,TGI,[17],1.21 µM
same,TGI,[18],1.13 µM
same,IC50,[18],0.57 µM
same,IC50,[19],0.7 µM
same,TGI,[19],1.31 µM
same,IC50,[20],0.84 µM
same,TGI,[20],1.95
same,IC50,[21],0.65 µM
same,TGI,[21],1.33 µM
same,IC50,[22],0.67 µM
same,TGI,[22],1.41 µM
same,TGI,[23],0.99 µM
same,IC50,[23],0.5 µM
same,TGI,[24],1.41 µM
same,IC50,[24],0.7 µM
same,IC50,[25],0.59 µM
same,TGI,[25],1.11
same,inhibition activity against hepatocellular carcinoma cell lines compared with sorafenib,[26],higher inhibition activity than sorafenib
same,TGI,[27],1.62 µM
same,IC50,[27],0.7 µM
same,IC50,[28],0.66 µM
same,TGI,[28],1.24 µM
same,IC50,[29],0.87 µM
same,TGI,[29],1.94 µM
same,TGI,[30],1.26 µM
same,IC50,[30],0.67 µM
same,IC50,[31],2.93 µM
same,TGI,[31],8.23 µM
same,IC50,[32],0.72 µM
same,TGI,[32],1.35 µM
